# Laboratory results: US20230174484A1, “ANTAGONISTS OF GPR39 PROTEIN” (Oregon Health & Science University, priority 2020, published 2023)
# Molecular target: T1, human GPR39 receptor (Homo sapiens, UniProt O43194)
# T1 construct: PC3 Cells, Expressing the Endogenous Human GPR39 Receptor; endogenous in cells; host or cells: PC3 (human prostate adenocarcinoma) cells
# T1 sequence (O43194 1-453): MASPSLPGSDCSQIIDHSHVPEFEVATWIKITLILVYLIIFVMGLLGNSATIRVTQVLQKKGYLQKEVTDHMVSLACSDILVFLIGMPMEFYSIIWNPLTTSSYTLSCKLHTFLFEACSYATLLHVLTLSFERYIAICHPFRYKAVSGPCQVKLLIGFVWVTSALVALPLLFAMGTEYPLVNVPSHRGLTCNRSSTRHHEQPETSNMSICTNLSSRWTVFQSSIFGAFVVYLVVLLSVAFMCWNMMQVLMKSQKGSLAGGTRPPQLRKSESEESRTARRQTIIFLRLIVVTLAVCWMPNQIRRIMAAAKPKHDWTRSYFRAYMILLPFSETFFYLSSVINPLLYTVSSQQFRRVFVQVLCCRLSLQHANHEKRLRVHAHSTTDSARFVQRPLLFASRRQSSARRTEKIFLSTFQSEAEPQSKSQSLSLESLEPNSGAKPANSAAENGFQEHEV
# Test: Measurement of intracellular calcium response in PC3 cells (FLIPR), antagonism of the C3 agonist response
# Type: cell-based
# Conditions: functional pKi (modified Cheng-Prusoff), inhibition of the C3 (TC-G 1008) response at EC90, 30 μM ZnCl2, read-out: fpKi activity
# Outline: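 PC3 cells with endogenous human GPR39 were loaded with Calcium-6 and read by FLIPR, with compounds tested in buffer with 30 μM final ZnCl2 and 0.32% DMSO. Peak Ca2+ signal was scored as % inhibition of the EC90 C3 response, fitted by four-parameter logistic. Functional pKi was derived via the modified Cheng-Prusoff equation.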
row,Compound,Ki [µM]
1,"O=C(Nc1ccc(C(=O)N2CCCCC2)c(N2CCCCCC2)c1)C1CC1 [Example 35, N-(3-(azepan-1-yl)-4-(piperidine-1-carbonyl)phenyl)cyclopropanecarboxamide]",0.0631 to 0.251
2,"CCCN1CCN(C(=O)c2ccc(NC(=O)C3CC3)cc2N2CCCCCC2)CC1 [Example 36, N-(3-(azepan-1-yl)-4-(4-propylpiperazine-1-carbonyl)phenyl)cyclopropanecarboxamide]",0.0631 to 0.251
3,"CC1CN(C)CCN1C(=O)c1ccc(NC(=O)C2CC2)cc1N1CCCCCC1 (centres unmarked) [Example 37, N-[3-(azepan-1-yl)-4-(2,4-dimethylpiperazine-1-carbonyl)phenyl]cyclopropanecarboxamide]",0.316 to 1
4,"O=C(Nc1ccc(C(=O)N2CCC(C(F)(F)F)CC2)c(N2CCCCCC2)c1)C1CC1 [Example 38, N-(3-(azepan-1-yl)-4-(4-(trifluoromethyl)piperidine-1-carbonyl)phenyl) cyclopropanecarboxamide]",0.0631 to 0.251
5,"O=C(Nc1ccc(C(=O)N2CCn3cccc3C2)c(N2CCCCCC2)c1)C1CC1 [Example 39, N-(3-(azepan-1-yl)-4-(1,2,3,4-tetrahydropyrrolo[1,2-a]pyrazine-2-carbonyl)phenyl) cyclopropane carboxamide]",0.0631 to 0.251
6,"O=C(Nc1ccc(C(=O)N2CCN3CCCC3C2)c(N2CCCCCC2)c1)C1CC1 (centres unmarked) [Example 40, N-[3-(azepan-1-yl)-4-{octahydropyrrolo[1,2-a]pyrazine-2-carbonyl}phenyl] Cyclopropanecarboxamide]",0.316 to 1
7,O=C(Nc1ccc(C(=O)N2CCn3c(nnc3C(F)(F)F)C2)c(N2CCCCCC2)c1)C1CC1 [Example 41],1.26 to 6.31
8,"O=C(NCc1ccccn1)c1ccc(NC(=O)C2CC2)cc1N1CCCCCC1 [Example 42, 2-(azepan-1-yl)-4-cyclopropaneamido-N-[(pyridin-2-yl)methyl]benzamide]",0.316 to 1
9,"O=C(NCc1ccccc1)c1ccc(NC(=O)C2CC2)cc1N1CCCCCC1 [Example 43, 2-(azepan-1-yl)-N-benzyl-4-cyclopropaneamidobenzamide]",0.316 to 1
10,"O=C(NCc1cccnc1)c1ccc(NC(=O)C2CC2)cc1N1CCCCCC1 [Example 44, 2-(azepan-1-yl)-4-(cyclopropanecarbonylamino)-N-(pyridin-3-ylmethyl)benzamide]",1.26 to 6.31
11,"O=C(Nc1ccc(C(=O)N2CCOCC2)c(N2CCCCCC2)c1)C1CC1 [Example 45, N-(3-(azepan-1-yl)-4-(morpholine-4-carbonyl)phenyl)cyclopropanecarboxamide]",0.316 to 1
12,"O=C(Nc1ccc(C(=O)N2CCN(c3ccccn3)CC2)c(N2CCCCCC2)c1)C1CC1 [Example 46, N-(3-(azepan-1-yl)-4-(4-(pyridin-2-yl)piperazine-1-carbonyl)phenyl) Cyclopropanecarboxamide]",0.316 to 1
13,"CCCC1CCN(C(=O)c2ccc(NC(=O)C3CC3)cc2N2CCCCCC2)CC1 [Example 47, N-(3-(azepan-1-yl)-4-(4-propylpiperidine-1-carbonyl)phenyl)cyclopropanecarboxamide]",0.0631 to 0.251
14,"CCOC1CCN(C(=O)c2ccc(NC(=O)C3CC3)cc2N2CCCCCC2)CC1 [Example 48, N-(3-(azepan-1-yl)-4-(4-ethoxypiperidine-1-carbonyl)phenyl)cyclopropanecarboxamide]",0.316 to 1
15,"CN1CCN(C(=O)c2ccc(NC(=O)C3CC3)cc2N2CCCCCC2)CC1 [Example 49, N-(3-(azepan-1-yl)-4-(4-methylpiperazine-1-carbonyl)phenyl)cyclopropanecarboxamide]",0.0631 to 0.251
16,"O=C(Nc1ccc(C(=O)N2CCN(Cc3ccccc3)CC2)c(N2CCCCCC2)c1)C1CC1 [Example 50, N-(3-(azepan-1-yl)-4-(4-benzylpiperazine-1-carbonyl)phenyl)cyclopropanecarboxamide]",0.0631 to 0.251
17,"O=C(Nc1ccc(C(=O)N2CCN(c3cccnc3)CC2)c(N2CCCCCC2)c1)C1CC1 [Example 51, N-(3-(azepan-1-yl)-4-(4-(pyridin-3-yl)piperazine-1-carbonyl)phenyl) Cyclopropanecarboxamide]",0.0631 to 0.251
18,"O=C(Nc1ccc(C(=O)N2CCN(c3ccccc3)CC2)c(N2CCCCCC2)c1)C1CC1 [Example 52, N-(3-(azepan-1-yl)-4-(4-phenylpiperazine-1-carbonyl)phenyl)cyclopropanecarboxamide]",0.0631 to 0.251
19,"O=C(Nc1ccc(C(=O)N2CCN(C3CCCC3)CC2)c(N2CCCCCC2)c1)C1CC1 [Example 53, N-[3-(azepan-1-yl)-4-(4-cyclopentylpiperazine-1-carbonyl)phenyl]cyclopropanecarboxamide]",0.316 to 1
20,"O=C(Nc1ccc(C(=O)N2CCCCC2c2nnnn2Cc2ccccc2)c(N2CCCCCC2)c1)C1CC1 (centres unmarked) [Example 54, N-[3-(azepan-1-yl)-4-[2-(1-benzyltetrazol-5-yl)piperidine-1-carbonyl]phenyl]cyclopropanecarboxamide]",0.0631 to 0.251
21,"CC1CN(C(=O)c2ccc(NC(=O)C3CC3)cc2N2CCCCCC2)CCN1C (centres unmarked) [Example 55, N-[3-(azepan-1-yl)-4-(3,4-dimethylpiperazine-1-carbonyl)phenyl]cyclopropanecarboxamide]",0.316 to 1
22,"CN1CCN(c2ccc(CNC(=O)c3ccc(NC(=O)C4CC4)cc3N3CCCCCC3)cc2)CC1 [Example 56, 2-(azepan-1-yl)-4-(cyclopropanecarbonylamino)-N-[[4-(4-methylpiperazin-1-yl)phenyl]methyl]benzamide]",1.26 to 6.31
23,"O=C(Nc1ccc(C(=O)N2CCN(c3ccncc3)CC2)c(N2CCCCCC2)c1)C1CC1 [Example 57, N-[3-(azepan-1-yl)-4-(4-pyridin-4-ylpiperazine-1-carbonyl)phenyl]cyclopropanecarboxamide]",1.26 to 6.31
24,"O=C(Nc1ccc(C(=O)N2CCSCC2c2ccccc2)c(N2CCCC2)c1)C1CC1 (centres unmarked) [Example 58, N-[4-(3-phenylthiomorpholine-4-carbonyl)-3-pyrrolidin-1-ylphenyl]cyclopropanecarboxamide]",0.0631 to 0.251
25,"O=C(Nc1ccc(C(=O)N2CCC(F)(F)CC2)c(N2CCCC2)c1)C1CC1 [Example 59, N-[4-(4,4-difluoropiperidine-1-carbonyl)-3-pyrrolidin-1-ylphenyl]cyclopropanecarboxamide]",0.0631 to 0.251
26,"O=C(Nc1ccc(C(=O)N2CCS(=O)(=O)CC2)c(N2CCCC2)c1)C1CC1 [Example 60, N-[4-(1,1-dioxo-1,4-thiazinane-4-carbonyl)-3-pyrrolidin-1-ylphenyl] Cyclopropanecarboxamide]",0.0631 to 0.251
27,"O=C(Nc1ccc(C(=O)N2CCC(C(F)(F)F)CC2)c(N2CCCC2)c1)C1CC1 [Example 61, N-[3-pyrrolidin-1-yl-4-[4-(trifluoromethyl)piperidine-1-carbonyl]phenyl]cyclopropanecarboxamide]",0.0631 to 0.251
28,"O=C(Nc1ccc(C(=O)N2CCS(=O)(=O)CC2)c(N2CCC3(CCC3)C2)c1)C1CC1 [Example 65, N-[3-(6-azaspiro[3.4]octan-6-yl)-4-(1,1-dioxo-1,4-thiazinane-4-carbonyl)phenyl]cyclopropanecarboxamide]",≤ 0.0501
29,"C[C@@H]1C[C@H](C)CN(c2cc(NC(=O)C3CC3)ccc2C(=O)N2CCS(=O)(=O)CC2)C1 [Example 67, Syn N-[3-[-3,5-dimethylpiperidin-1-yl]-4-(1,1-dioxo-1,4-thiazinane-4-carbonyl)phenyl]Cyclopropanecarboxamide]",≤ 0.0501
